From patent publication US9758561B2 (priority 2014, dated 2017)
pEC50: −log10 of the molar value. Values after ≈ are worked out from the molar mass of the structure shown. Read-outs that look alike come from different tables or passages of the source.

Assays:
[1] = target: T1, human GLP-1 receptor (Homo sapiens, UniProt P43220); assay: cAMP response of HEK-293 cells stably expressing human GLP-1 receptor (HTRF); assay type: cell-based; settings: Table 6; read-out: EC50 hGLP-1R
T1 construct: expressed in transfected cells; host or cells: HEK-293
T1 sequence (P43220 24-463): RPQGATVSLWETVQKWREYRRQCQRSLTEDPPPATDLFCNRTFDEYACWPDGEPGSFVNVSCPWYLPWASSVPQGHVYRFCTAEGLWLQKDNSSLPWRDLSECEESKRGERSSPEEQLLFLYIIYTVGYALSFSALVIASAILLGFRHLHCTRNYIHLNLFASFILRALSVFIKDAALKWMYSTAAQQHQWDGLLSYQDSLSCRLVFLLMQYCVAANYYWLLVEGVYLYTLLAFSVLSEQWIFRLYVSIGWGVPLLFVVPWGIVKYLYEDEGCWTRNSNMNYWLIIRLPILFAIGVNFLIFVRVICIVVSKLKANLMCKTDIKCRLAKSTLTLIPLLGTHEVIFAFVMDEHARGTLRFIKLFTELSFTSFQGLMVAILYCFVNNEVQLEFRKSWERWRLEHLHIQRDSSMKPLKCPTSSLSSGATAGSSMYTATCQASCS
Experimental: (§1) For preparation, cells were split into T175 culture flasks and grown overnight to near confluency in medium (DMEM/10% FBS). Medium was then removed and cells washed with PBS lacking calcium and magnesium, followed by proteinase treatment with accutase (Sigma-Aldrich cat. no. A6964). Detached cells were washed and resuspended in assay buffer (1×HBSS; 20 mM HEPES, 0.1% BSA, 2 mM IBMX) and cellular density determined. They were then diluted to 400000 cells/ml and 25 μl-aliquots dispensed into the wells of 96-well plates. For measurement, 25 μl of test compound in assay buffer was added to the wells, followed by incubation for 30 minutes at room temperature. […] Potencies of peptidic compounds at the GLP-1, glucagon and GIP receptors were determined by exposing cells expressing human glucagon receptor (hGlucagon R), human GIP receptor (hGIP-R) or human GLP-1 receptor (hGLP-1R) to the listed compounds at increasing concentrations and measuring the formed cAMP as described in Methods.

[2] = Solubility testing in buffer (HPLC-UV); assay type: physicochemical
Experimental: Prior to the testing of solubility and stability of a peptide batch, its purity (HPLC-UV) was determined. […] Therefore, solutions from solid samples were prepared in different buffer systems with a concentration of 10 mg/mL compound based on the previously determined % purity. HPLC-UV was performed after 2 h of gentle agitation from the supernatant, which was obtained by 20 min of centrifugation at 4500 rpm. […] This analysis also served as starting point (t0) for the stability testing.

[3] = Stability testing in solution, 7 days at 40° C. (HPLC-UV); assay type: physicochemical; settings: for Stability pH 4.5: pH 4.5, 7 days at 40° C. in solution; for Stability pH 7.4: pH 7.4, 7 days at 40° C. in solution
Experimental: After that time course, the sample was centrifuged for 20 min at 4500 rpm and 0.2 μL of the supernatant were analysed with HPLC-UV.
For determination of the amount of the remaining peptide, the peak areas of the target compound at t0 and t7 were compared, resulting in “% remaining peptide”, following the equation % remaining peptide=[(peak area peptide t7)×100]/peak area peptide t0.
The stability is expressed as “% remaining peptide”.

[4] = target: T2, human glucagon receptor (Homo sapiens, UniProt P47871); assay: cAMP response of HEK-293 cells stably expressing human glucagon receptor (HTRF); assay type: cell-based; settings: Table 8; comparison Aib vs. Lys in position 27; read-out: EC50 hGlucagon-R
T2 construct: expressed in transfected cells; host or cells: HEK-293
T2 sequence (P47871 26-477): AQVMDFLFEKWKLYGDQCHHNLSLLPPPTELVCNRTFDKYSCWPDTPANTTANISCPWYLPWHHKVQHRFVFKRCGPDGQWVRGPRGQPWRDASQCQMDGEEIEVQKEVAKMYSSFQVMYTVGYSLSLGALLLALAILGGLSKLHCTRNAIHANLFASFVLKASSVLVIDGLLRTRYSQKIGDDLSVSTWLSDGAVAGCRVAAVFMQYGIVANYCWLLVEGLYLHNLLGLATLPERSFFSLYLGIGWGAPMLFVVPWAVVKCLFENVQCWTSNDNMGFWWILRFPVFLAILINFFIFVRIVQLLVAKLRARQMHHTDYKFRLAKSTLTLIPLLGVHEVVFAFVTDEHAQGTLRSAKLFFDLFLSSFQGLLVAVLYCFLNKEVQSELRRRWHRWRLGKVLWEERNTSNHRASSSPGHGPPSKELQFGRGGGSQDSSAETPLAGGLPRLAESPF
Experimental: as §1

[5] = pH 4.5, target concentration 10 mg/ml, read-out: solubility pH 4.5
[6] = pH 7.4, target concentration 10 mg/ml, read-out: solubility pH 7.4

Work on CCCCCCCCCCCCCCCC(=O)N[C@@H](CCC(=O)N[C@@H](CCC(=O)NCCCC[C@H](NC(=O)[C@H](CCC(N)=O)NC(=O)[C@H](CCCCN)NC(=O)[C@H](CO)NC(=O)[C@H](CC(C)C)NC(=O)[C@H](CC(=O)O)NC(=O)[C@H](CO)NC(=O)[C@@H](NC(=O)[C@H](Cc1ccccc1)NC(=O)[C@@H](NC(=O)CNC(=O)[C@H](CCC(N)=O)NC(=O)[C@@H](CO)NC(=O)[C@@H](N)Cc1c[nH]cn1)[C@@H](C)O)[C@@H](C)O)C(=O)N[C@@H](CC(=O)O)C(=O)N[C@@H](CCC(=O)O)C(=O)N[C@@H](CCC(=O)O)C(=O)N[C@@H](C)C(=O)N[C@@H](C)C(=O)N[C@@H](CCCNC(=N)N)C(=O)N[C@@H](CC(C)C)C(=O)N[C@@H](Cc1ccccc1)C(=O)N[C@H](C(=O)N[C@@H](CCC(=O)O)C(=O)N[C@@H](Cc1c[nH]c2ccccc12)C(=O)N[C@@H](CC(C)C)C(=O)NC(C)(C)C(=O)N[C@@H](CCCCN)C(=O)N[C@H](C)C(=O)NCC(=O)N1CCC[C@H]1C(=O)N[C@@H](CO)C(=O)N[C@@H](CO)C(=O)NCC(=O)N[C@@H](C)C(=O)N1CCC[C@H]1C(=O)N1CCC[C@H]1C(=O)N1CCC[C@H]1C(=O)N[C@@H](CO)C(N)=O)[C@@H](C)CC)C(=O)O)C(=O)O [SEQ ID NO: 24, H-dSer-Q-G-T-F-T-S-D-L-S-K-Q-K(γE-γE-x53)-D-E-E-A-A-R-L-F-I-E-W-L-Aib-K-dAla-G-P-S-S-G-A-P-P-P-S-NH2] yielded a pEC50 [1] of 11.62, a solubility at 2 h [2, 5] greater than 8000 µg/mL and a solubility at 2 h [2, 6] of 7000 µg/mL (≈ 1500 µM). For the same compound, the “Stability pH 4.5” value [3] was 81.8 % remaining peptide and the “Stability pH 7.4” value [3] was 95.4 % remaining peptide.

Work on CCCCCCCCCCCCCCCC(=O)N[C@@H](CCC(=O)N[C@@H](CCC(=O)NCCCC[C@H](NC(=O)[C@H](CCC(N)=O)NC(=O)[C@H](CCCCN)NC(=O)[C@H](CO)NC(=O)[C@H](CC(C)C)NC(=O)[C@H](CC(=O)O)NC(=O)[C@H](CO)NC(=O)[C@@H](NC(=O)[C@H](Cc1ccccc1)NC(=O)[C@@H](NC(=O)CNC(=O)[C@H](Cc1c[nH]cn1)NC(=O)[C@@H](CO)NC(=O)[C@@H](N)Cc1c[nH]cn1)[C@@H](C)O)[C@@H](C)O)C(=O)N[C@@H](CC(=O)O)C(=O)N[C@@H](CCC(=O)O)C(=O)N[C@@H](CCC(=O)O)C(=O)N[C@@H](C)C(=O)N[C@@H](C)C(=O)N[C@@H](CCCNC(=N)N)C(=O)N[C@@H](CC(C)C)C(=O)N[C@@H](Cc1ccccc1)C(=O)N[C@H](C(=O)N[C@@H](CCC(=O)O)C(=O)N[C@@H](Cc1c[nH]c2ccccc12)C(=O)N[C@@H](CC(C)C)C(=O)NC(C)(C)C(=O)N[C@@H](CCCCN)C(=O)N[C@H](C)C(=O)NCC(=O)N1CCC[C@H]1C(=O)N[C@@H](CO)C(=O)N[C@@H](CO)C(=O)NCC(=O)N[C@@H](C)C(=O)N1CCC[C@H]1C(=O)N1CCC[C@H]1C(=O)N1CCC[C@H]1C(=O)N[C@@H](CO)C(N)=O)[C@@H](C)CC)C(=O)O)C(=O)O [SEQ ID NO: 26, H-dSer-H-G-T-F-T-S-D-L-S-K-Q-K(γE-γE-x53)-D-E-E-A-A-R-L-F-I-E-W-L-Aib-K-dAla-G-P-S-S-G-A-P-P-P-S-NH2] yielded a pEC50 [1] of 11.70, a solubility at 2 h [2, 5] of 6800 µg/mL (≈ 1460 µM) and a solubility at 2 h [2, 6] of 6700 µg/mL (≈ 1440 µM). The “Stability pH 4.5” value [3] was 92.7 % remaining peptide and the “Stability pH 7.4” value [3] was 96.6 % remaining peptide.

CCCCCCCCCCCCCCCC(=O)N[C@@H](CCC(=O)N[C@@H](CCC(=O)NCCCC[C@H](NC(=O)[C@H](CCC(N)=O)NC(=O)[C@H](CCCCN)NC(=O)[C@H](CO)NC(=O)[C@H](CC(C)C)NC(=O)[C@H](CC(=O)O)NC(=O)[C@H](CO)NC(=O)[C@@H](NC(=O)[C@H](Cc1ccccc1)NC(=O)[C@@H](NC(=O)CNC(=O)[C@H](Cc1c[nH]cn1)NC(=O)[C@@H](CO)NC(=O)[C@@H](N)Cc1c[nH]cn1)[C@@H](C)O)[C@@H](C)O)C(=O)N[C@@H](CCC(=O)O)C(=O)N[C@@H](CCC(=O)O)C(=O)N[C@@H](CCC(=O)O)C(=O)N[C@@H](C)C(=O)N[C@@H](C)C(=O)N[C@@H](CCCNC(=N)N)C(=O)N[C@@H](CC(C)C)C(=O)N[C@@H](Cc1ccccc1)C(=O)N[C@H](C(=O)N[C@@H](CCC(=O)O)C(=O)N[C@@H](Cc1c[nH]c2ccccc12)C(=O)N[C@@H](CC(C)C)C(=O)N[C@@H](CCCCN)C(=O)N[C@@H](C)C(=O)NCC(=O)NCC(=O)N1CCC[C@H]1C(=O)N[C@@H](CO)C(=O)N[C@@H](CO)C(=O)NCC(=O)N[C@@H](C)C(=O)N1CCC[C@H]1C(=O)N1CCC[C@H]1C(=O)N1CCC[C@H]1C(=O)N[C@@H](CO)C(N)=O)[C@@H](C)CC)C(=O)O)C(=O)O [SEQ ID NO: 30, H-dSer-H-G-T-F-T-S-D-L-S-K-Q-K(γE-γE-x53)-EEEAARLFIEWLKAGGPSSGAPPPS-NH2, reference compound] showed a pEC50 [4] of 11.29.

For CCCCCCCCCCCCCCCC(=O)N[C@@H](CCC(=O)N[C@@H](CCC(=O)NCCCC[C@H](NC(=O)[C@H](CCC(N)=O)NC(=O)[C@H](CCCCN)NC(=O)[C@H](CO)NC(=O)[C@H](CC(C)C)NC(=O)[C@H](CC(=O)O)NC(=O)[C@H](CO)NC(=O)[C@@H](NC(=O)[C@H](Cc1ccccc1)NC(=O)[C@@H](NC(=O)CNC(=O)[C@H](CCC(N)=O)NC(=O)[C@@H](CO)NC(=O)[C@@H](N)Cc1c[nH]cn1)[C@@H](C)O)[C@@H](C)O)C(=O)N[C@@H](CC(=O)O)C(=O)N[C@@H](CCC(=O)O)C(=O)N[C@@H](CCC(=O)O)C(=O)N[C@@H](C)C(=O)N[C@@H](C)C(=O)N[C@@H](CCCNC(=N)N)C(=O)N[C@@H](CC(C)C)C(=O)N[C@@H](Cc1ccccc1)C(=O)N[C@H](C(=O)N[C@@H](CCC(=O)O)C(=O)N[C@@H](Cc1c[nH]c2ccccc12)C(=O)N[C@@H](CC(C)C)C(=O)NC(C)(C)C(=O)N[C@@H](C)C(=O)N[C@H](C)C(=O)NCC(=O)N1CCC[C@H]1C(=O)N[C@@H](CO)C(=O)N[C@@H](CO)C(=O)NCC(=O)N[C@@H](C)C(=O)N1CCC[C@H]1C(=O)N1CCC[C@H]1C(=O)N1CCC[C@H]1C(=O)N[C@@H](CO)C(N)=O)[C@@H](C)CC)C(=O)O)C(=O)O [SEQ ID NO: 12, H-dSer-Q-G-T-F-T-S-D-L-S-K-Q-K(γE-γE-x53)-D-E-E-A-A-R-L-F-I-E-W-L-Aib-A-dAla-G-P-S-S-G-A-P-P-P-S-NH2], the solubility at 2 h [2, 5] was 2000 µg/mL (≈ 435 µM), the solubility at 2 h [2, 6] was greater than 8000 µg/mL and the “Stability pH 4.5” value [3] was 85.6 % remaining peptide. The “Stability pH 7.4” value [3] was 90.6 % remaining peptide.

CCCCCCCCCCCCCCCCCC(=O)N[C@@H](CCC(=O)NCCCC[C@H](NC(=O)[C@H](CCC(N)=O)NC(=O)[C@H](CCCCN)NC(=O)[C@H](CO)NC(=O)[C@H](CC(C)C)NC(=O)[C@H](CC(=O)O)NC(=O)[C@H](CO)NC(=O)[C@@H](NC(=O)[C@H](Cc1ccccc1)NC(=O)[C@@H](NC(=O)CNC(=O)[C@H](CCC(N)=O)NC(=O)[C@@H](CO)NC(=O)[C@@H](N)Cc1c[nH]cn1)[C@@H](C)O)[C@@H](C)O)C(=O)N[C@@H](CC(=O)O)C(=O)N[C@@H](CCC(=O)O)C(=O)N[C@@H](CCC(=O)O)C(=O)N[C@@H](C)C(=O)N[C@@H](C)C(=O)N[C@@H](CCCNC(=N)N)C(=O)N[C@@H](CC(C)C)C(=O)N[C@@H](Cc1ccccc1)C(=O)N[C@H](C(=O)N[C@@H](CCC(=O)O)C(=O)N[C@@H](Cc1c[nH]c2ccccc12)C(=O)N[C@@H](CC(C)C)C(=O)NC(C)(C)C(=O)N[C@@H](CCCCN)C(=O)N[C@H](C)C(=O)NCC(=O)N1CCC[C@H]1C(=O)N[C@@H](CO)C(=O)N[C@@H](CO)C(=O)NCC(=O)N[C@@H](C)C(=O)N1CCC[C@H]1C(=O)N1CCC[C@H]1C(=O)N1CCC[C@H]1C(=O)N[C@@H](CO)C(N)=O)[C@@H](C)CC)C(=O)O [SEQ ID NO: 25, H-dSer-Q-G-T-F-T-S-D-L-S-K-Q-K(γE-x70)-D-E-E-A-A-R-L-F-I-E-W-L-Aib-K-dAla-G-P-S-S-G-A-P-P-P-S-NH2] gave a pEC50 [1] of 11.68.
